Here are results for two molecules from patent publication US9839618B2, “Compositions and methods relating to proliferative diseases” (The Penn State Research Foundation, priority 2010, dated 2017).

Assay [1] has as its system melanoma cell lines (UACC 903, 1205Lu). Put plainly: MTS assay, melanoma cell lines (cell line not given). The assay is classed as cell-based, human. The settings on record: UACC 903 and 1205 Lu. On the procedure: (§1) The mechanistic basis of leelamine's activity to inhibit melanoma cell growth is determined by examining the effect of leelamine on 1) cell viability using the MTS assay; 2) proliferation using a BrdU incorporation assay; 3) apoptosis using an assay for caspase-3/7 activity; and 4) cell cycle analysis. The MTS assay as described in Sharma, A. et al., Clin Cancer Res, 2009, 15:1674-85; and Madhunapantula, S. V. et al., Mol Cancer Ther, 2008, 7:1297-308 is used to assay cell viability. Rates of proliferation and apoptosis are measured by seeding 5×10^3 cells in 96-well plates, followed by treatment with 0.62 to 10 μmol/L of leelamine for 24 hours. Proliferating and apoptotic cells are quantified using a colorimetric cell proliferation ELISA BrdU kit (Roche diagnostics, Indianapolis, Ind.) or Apo-ONE Homogenous caspase-3/7 assay kit (Promega, Madison, Wis.), respectively, as described in Sharma, A. et al., Clin Cancer Res, 2009, 15:1674-85; and Madhunapantula, S. V. et al., Mol Cancer Ther, 2008, 7:1297-308.
Dehydroabietylamine, its N-substituted derivatives and the corresponding dihydroabietylamine and its N-substituted derivatives are tested for their capability to inhibit cell growth of cancer cell lines, including melanoma (UACC 903, 1205Lu), breast (MCF-7), fibrosarcoma (HT-1080), colon (Caco-2), and prostate (PC-3) cancer cell lines. Viability and IC50 of normal human fibroblasts and cell lines from melanoma and other malignancies following treatment with all the agents are measured using the MTS assay (Promega, Madison, Wis.). Human fibroblast FF2441 cells, metastatic melanoma cell lines 1205 Lu and UACC 903 as well as cancer cell lines representing sarcoma (HT-1080), prostate (PC-3, LNCaP), breast (MCF-7) and lung (A-549) are maintained in DMEM (Invitrogen, Carlsbad, Calif.) supplemented with 10% FBS (Hyclone, Logan, Utah) in a 5% CO2 atmosphere, humidified 37° C. incubator. 5×10^3 cells per well in 100 μL of media are plated and grown in a 96-well plate for 48 to 72 h and treated with either DMSO vehicle control or 0.62 to 40 μmol/L for 24, 48 or 72 h. IC50 values for each compound in […] for respective cell lines are measured from three independent experiments using GraphPad Prism version 4.01 (GraphPad Software, La Jolla, Calif.). FIG. 52 is a graph showing IC50 values for leelamine and compounds 4a, 4b and 5a in treated fibroblasts (FF2441) compared to melanoma cells. Selectivity ratio here is defined as ratio of activity against fibroblasts compared to activity against melanoma cells. Leelamine is relatively selective with a ratio of >6 and >4 for UACC903 and 1205Lu melanoma cells. The selectivity ratio of compound 4a is ˜4 and ˜3 for UACC903 and 1205Lu and for compound 4b is ˜4 for both cell lines. The selectivity ratio of compound 5a is ˜4 for UACC903 and >2 for 1205Lu cells.
(Tetrazolium assays rely on reduction of a dye to a coloured formazan, in cell work by metabolically active cells.)

Assay [2] relates to GFP expressing UACC 903 melanoma cells in skin reconstructs. Description: Topical treatment of melanoma tumors in skin reconstructs. The settings on record: topical 2.5, 5 and 10 uM for 8 days. The assay is classed as cell-based, human. On the procedure:
In this example, the effect of leelamine on melanoma tumors developing in skin reconstructs is tested by topical application. Skin reconstructs are generated by mixing GFP expressing UACC 903 melanoma cells with human normal fibroblasts (FF2441) and keratinocytes (HFK) followed by growing in a 37° C. incubator for 7 days. Beginning from day 8, completely developed skins containing melanoma tumors are treated with increasing concentrations of Leelamine (2.5, 5 and 10 uM in 200 uL PBS) or PBS vehicle alone for an additional 8 more days. The sizes of developing tumors, in terms of area occupied by GFP are measured. […] Also shown in FIG. 22 are images of control and treated cells.

For assay [3], the system named is non-melanoma cancer cell lines. Put plainly: MTS assay, leelamine on non-melanoma cancer cell lines. The assay is classed as cell-based. The settings on record: breast, lung, prostate, connective tissue, pancreas, colon lines. The procedure:
The efficacy of leelamine to kill other cancer types is measured and the IC50 for cell lines derived from carcinomas of breast, lung, prostate, connective tissue, pancreas and colon determined. The MTS assay as described in Sharma, A. et al., Clin Cancer Res, 2009, 15:1674-85; and Madhunapantula, S. V. et al., Mol Cancer Ther, 2008, 7:1297-308 is used to establish the IC50 at 24, 48 and 72 hours of leelamine treatment for normal human epidermal melanocytes (FOM103), normal skin fibroblast cells (FF2441), normal skin keratinocytes (HFK) and compared to melanocytic lesion cells from the radial-, vertical- and metastatic melanoma stages. 5×10^3 cells per well in 100 μL of media are plated and grown in a 96-well plate for 48 to 72 hours and treated with either DMSO vehicle control or 0.62 to 40 μmol/L of leelamine for 24, 48 or 72 hours. IC50 values for each compound in μmol/L for respective cell lines are measured from three independent experiments using GraphPad Prism version 4.01 (GraphPad Software, La Jolla, Calif.). Leelamine is found to be not toxic to normal cells and effective to kill melanoma cells as well as non-melanoma cancer cells as shown in Table 1 in FIG. 20. Leelamine is 3- to 4-fold more specific at killing metastatic melanoma than normal cells, supporting cancer therapeutic utility at concentrations<2 μmol/L.

Assay [4] has as its system UACC 903 and 1205 Lu cells. Put plainly: Caspase-3/7 apoptosis assay. The assay is classed as cell-based, human. The settings on record: 0.62 to 10 μmol/L, 24 hours. The procedure:
as §1

The subject of the next assay is UACC 903 melanoma cells. Put plainly: Natural product library NPL-480 primary screen, MTS viability. The assay is classed as cell-based. The settings on record: Homo sapiens, 5 μmol/L, 24 hours, MTS assay, read-out: decrease of cell viability. On the procedure:
Natural product library NPL-480 (from TimTec Inc., Newark, Del.) consisting of 480 compounds derived from plants, animal, bacteria and fungus is screened using MTS assay to identify agents reducing cell growth of melanoma cells. Compounds of the NPL-480 library that are supplied as powders or oils are dissolved in DMSO to a stock concentration of 10 mM and stored at −20° C. DMSO concentrations in the reaction mixture are controlled to not exceed 0.5% (vol/vol). 5×10^3 UACC 903 melanoma cells are plated in 96 well plates for 24 hours followed by treatment with each compound at 5 μmol/L for 24 hours. Viability is measured using the MTS assay as described in Sharma, A. et al., Clin Cancer Res, 2009, 15:1674-85; and Madhunapantula, S. V. et al., Mol Cancer Ther, 2008, 7:1297-308. This primary screen identified 12 compounds effective to decrease melanoma cells viability by ˜50% or more.

For `CC(C)c1ccc2c(c1)CCC1[C@](C)(CN)CCC[C@]21C` (stereo partly drawn) [Leelamine, [(1R,4aS)-1,4a-dimethyl-7-(propan-2-yl)-1,2,3,4,4a,9,10,10a-octahydrophenanthren-1-yl]methanamine], in assay [1], the “anti-cancer activity / viability of melanoma cell lines, in words” value is “effectively inhibits the viability”. The “melanoma tumor growth in skin reconstructs (GFP area)” value in assay [2] was “inhibits melanoma tumor growth”. The molecule also registered an IC50 in assay [3] of 1 to 10 µM. The “apoptosis (caspase-3/7 activity)” value in assay [4] is “increase apoptosis”. In addition, the cytotoxicity at 5 µM in the assay with UACC 903 melanoma cells is around 95%.
For `CC(C)C1=CC2=CCC3[C@](C)(CCC[C@@]3(C)C(=O)O)C2CC1` (stereo partly drawn) [Abietic acid, (1R,4aR)-1,4a-dimethyl-7-(propan-2-yl)-1,2,3,4,4a,4b,5,6,10,10a-decahydrophenanthrene-1-carboxylic acid, reference compound], the “anti-cancer activity / viability of melanoma cell lines, in words” value in assay [1] is “no anti-cancer activity”.

As a reminder, the IC50 is the point on the concentration scale where inhibition reaches its midpoint. High values mean a need for much substance, low ones inhibition by little substance.
